A short description of data set [1]: Toxicity in BALB/c mouse xenografted with human U-937 cells assessed as inflammatory infiltration in kidney at 50 to 100 mg/kg, po administered once a day for 14 days by H and E staining based analysis. In kind it is organism-based. As to conditions: in vivo, 336 h, dose 50-100 mg/kg, time 14 day. Background: In xenograft studies the graft and the host belong to different species.

The target in data set [2] is T1, Tyrosine-protein kinase BTK (Homo sapiens, UniProt Q06187). Put plainly: Inhibition of BTK phosphorylation at Y223 residue in anti-IgM induced human Ramos cells preincubated with compound for 4 hrs followed by anti-IgM induction and measured after 15 mins by Western blot analysis. The format is cell-based. To be noted: dose <= 1.0 µM, time 255.0 min. In general terms: Immunoblotting shows a protein as a band on a membrane.
T1 sequence (Q06187 whole entry): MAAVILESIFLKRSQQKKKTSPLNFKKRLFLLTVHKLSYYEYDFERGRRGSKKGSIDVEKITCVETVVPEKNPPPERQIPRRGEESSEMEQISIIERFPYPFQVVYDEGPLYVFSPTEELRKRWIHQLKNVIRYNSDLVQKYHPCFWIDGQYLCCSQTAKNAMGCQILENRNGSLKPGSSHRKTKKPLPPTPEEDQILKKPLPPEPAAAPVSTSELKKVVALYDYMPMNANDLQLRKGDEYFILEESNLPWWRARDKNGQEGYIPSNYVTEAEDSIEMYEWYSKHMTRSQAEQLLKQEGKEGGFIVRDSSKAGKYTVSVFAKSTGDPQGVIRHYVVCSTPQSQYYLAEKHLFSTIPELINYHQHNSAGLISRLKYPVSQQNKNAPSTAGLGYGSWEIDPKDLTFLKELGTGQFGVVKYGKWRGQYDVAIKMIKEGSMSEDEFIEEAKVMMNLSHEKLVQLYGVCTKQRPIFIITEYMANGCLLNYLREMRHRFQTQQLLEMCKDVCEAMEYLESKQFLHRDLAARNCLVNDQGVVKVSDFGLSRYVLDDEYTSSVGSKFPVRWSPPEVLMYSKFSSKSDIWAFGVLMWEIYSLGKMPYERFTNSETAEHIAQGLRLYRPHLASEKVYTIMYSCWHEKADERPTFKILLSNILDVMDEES

The nature of data set [3]: Toxicity in BALB/c mouse xenografted with human U-937 cells assessed as parenchymal injury in heart at 50 to 100 mg/kg, po administered once a day for 14 days by H and E staining based analysis. In kind it is organism-based. As to conditions: in vivo, 336 h, dose 50-100 mg/kg, time 14 day.
Data set [4] can be described thus: Toxicity in BALB/c mouse xenografted with human U-937 cells assessed as parenchymal injury in lung at 50 to 100 mg/kg, po administered once a day for 14 days by H and E staining based analysis. As to conditions: in vivo, 336 h, dose 50-100 mg/kg, time 14 day. The format is organism-based.
Data set [5] is described as follows: Toxicity in BALB/c mouse xenografted with human U-937 cells assessed as parenchymal injury in spleen at 50 to 100 mg/kg, po administered once a day for 14 days by H and E staining based analysis. As to conditions: in vivo, 336 h, dose 50-100 mg/kg, time 14 day. In kind it is organism-based.
Data set [6] can be described thus: Toxicity in BALB/c mouse xenografted with human U-937 cells assessed as inflammatory infiltration in lung at 50 to 100 mg/kg, po administered once a day for 14 days by H and E staining based analysis. The format is organism-based. To be noted: in vivo, 336 h, dose 50-100 mg/kg, time 14 day.
The target of data set [7] is T1, Tyrosine-protein kinase BTK. Kind of data set: Inhibition of BTK (unknown origin) at 100 nM relative to control.
Data set [8] in a line: Toxicity in BALB/c mouse xenografted with human U-937 cells assessed as inflammatory infiltration in liver at 50 to 100 mg/kg, po administered once a day for 14 days by H and E staining based analysis. In kind it is organism-based. To be noted: in vivo, 336 h, dose 50-100 mg/kg, time 14 day.
Data set [9] can be described thus: Toxicity in BALB/c mouse xenografted with human U-937 cells assessed as inflammatory infiltration in spleen at 50 to 100 mg/kg, po administered once a day for 14 days by H and E staining based analysis. As to conditions: in vivo, 336 h, dose 50-100 mg/kg, time 14 day. The format is organism-based.
Data set [10] can be described thus: AUC (0 to t) in male Sprague-Dawley rat at 10 mg/kg, po measured up to 24 hrs by LC-MS/MS analysis. As to conditions: in vivo. The format is ADME, organism-based.
The test system of data set [11] is U-937. Put plainly: Antiproliferative activity against human U-937 cells expressing BTK assessed as inhibition of cell proliferation incubated for 48 hrs by CCK-8 assay. The format is functional, cell-based. As to conditions: U-937, 48 h.
Data set [12] has as its system U-937. Put plainly: Antitumor activity against human U-937 cells xenografted in BALB/c mouse assessed as tumor growth inhibition at 100 mg/kg, po administered once a day for 14 days. In kind it is functional. To be noted: U-937, 336 h, time 14 day, read-out: TGI.
Data set [13] has as its target T1, Tyrosine-protein kinase BTK. Kind of data set: Inhibition of BTK phosphorylation at Y223 residue in anti-IgM induced human U-937 cells preincubated with compound for 4 hrs followed by anti-IgM induction and measured after 15 mins by Western blot analysis. In kind it is cell-based. As to conditions: dose <= 1.0 µM, time 255.0 min.
Data set [14] can be described thus: Toxicity in BALB/c mouse xenografted with human U-937 cells assessed as parenchymal injury in liver at 50 to 100 mg/kg, po administered once a day for 14 days by H and E staining based analysis. As to conditions: in vivo, 336 h, dose 50-100 mg/kg, time 14 day. The format is organism-based.
Data set [15] can be described thus: AUC (0 to 5 hrs) in male Sprague-Dawley rat at 10 mg/kg, po measured up to 5 hrs by LC-MS/MS analysis. As to conditions: in vivo. The format is ADME, organism-based.
Data set [16] addresses T2, 1-phosphatidylinositol 4,5-bisphosphate phosphodiesterase gamma-2 (Homo sapiens) (UniProt P16885).
T2 sequence (whole entry): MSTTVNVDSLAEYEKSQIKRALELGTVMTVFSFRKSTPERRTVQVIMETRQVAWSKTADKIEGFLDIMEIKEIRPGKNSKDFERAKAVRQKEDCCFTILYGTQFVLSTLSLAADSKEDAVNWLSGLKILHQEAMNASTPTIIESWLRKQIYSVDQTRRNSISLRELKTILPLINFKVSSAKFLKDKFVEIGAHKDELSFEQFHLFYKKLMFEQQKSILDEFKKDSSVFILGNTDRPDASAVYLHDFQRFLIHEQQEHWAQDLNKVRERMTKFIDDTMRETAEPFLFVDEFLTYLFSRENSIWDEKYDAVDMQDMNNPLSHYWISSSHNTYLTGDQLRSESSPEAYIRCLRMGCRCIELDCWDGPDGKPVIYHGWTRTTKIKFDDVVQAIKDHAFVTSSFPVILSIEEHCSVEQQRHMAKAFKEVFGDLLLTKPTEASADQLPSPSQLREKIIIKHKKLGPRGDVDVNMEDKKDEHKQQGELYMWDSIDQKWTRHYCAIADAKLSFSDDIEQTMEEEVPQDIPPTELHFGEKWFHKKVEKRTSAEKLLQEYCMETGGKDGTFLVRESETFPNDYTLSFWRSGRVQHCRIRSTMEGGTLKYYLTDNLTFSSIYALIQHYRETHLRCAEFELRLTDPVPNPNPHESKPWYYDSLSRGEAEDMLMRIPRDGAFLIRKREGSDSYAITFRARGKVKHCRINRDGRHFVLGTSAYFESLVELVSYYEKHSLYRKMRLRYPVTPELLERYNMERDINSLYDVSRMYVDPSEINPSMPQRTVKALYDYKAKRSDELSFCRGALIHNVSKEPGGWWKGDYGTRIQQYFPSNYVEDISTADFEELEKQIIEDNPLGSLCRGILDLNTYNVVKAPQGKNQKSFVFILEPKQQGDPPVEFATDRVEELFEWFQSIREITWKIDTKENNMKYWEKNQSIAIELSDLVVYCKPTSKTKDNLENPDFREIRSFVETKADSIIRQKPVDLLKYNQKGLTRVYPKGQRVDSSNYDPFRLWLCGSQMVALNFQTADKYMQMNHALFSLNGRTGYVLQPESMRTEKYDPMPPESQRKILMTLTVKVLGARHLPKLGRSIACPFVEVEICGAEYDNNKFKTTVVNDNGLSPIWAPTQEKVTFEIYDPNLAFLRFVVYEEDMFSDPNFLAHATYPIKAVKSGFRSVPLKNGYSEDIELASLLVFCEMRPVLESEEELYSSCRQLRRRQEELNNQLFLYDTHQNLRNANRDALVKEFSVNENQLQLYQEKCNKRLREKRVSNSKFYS
Kind of data set: Inhibition of PLCgamma2 phosphorylation at Y1217 residue in anti-IgM induced human Ramos cells preincubated with compound for 4 hrs followed by anti-IgM induction and measured after 15 mins by Western blot analysis. To be noted: dose <= 1.0 µM, time […]. In kind it is cell-based.

Data set [17] relates to U-937. Kind of data set: Antitumor activity against human U-937 cells xenografted in po dosed BALB/c mouse assessed as tumor growth inhibition administered once a day for 14 days. In kind it is functional, organism-based. As to conditions: dose 50-100 mg/kg, time 14.0 day.
Data set [18] can be described thus: Tmax in male Sprague-Dawley rat at 10 mg/kg, po measured up to 5 hrs by LC-MS/MS analysis. To be noted: in vivo. In kind it is ADME, organism-based.
Data set [19] concerns U-937. Put plainly: Induction of cell cycle arrest in human U-937 cells assessed as accumulation of cells at S-phase incubated for 2 days by PI staining based flow cytometry analysis. To be noted: dose 1-10 µM, time 2.0 day. In kind it is functional.
Data set [20] is described as follows: Cmax in male Sprague-Dawley rat at 10 mg/kg, po measured up to 5 hrs by LC-MS/MS analysis. In kind it is ADME, organism-based. As to conditions: in vivo.

We go through 1 molecule from ChEMBL document CHEMBL6134853, “Design, Synthesis, and Biological Evaluation of Pyrrolo[1,2-a]quinoxalin-4(5H)-one Derivatives as Potent and Orally Available Noncovalent Bruton's Tyrosine Kinase (BTK) Inhibitors” (J Med Chem, 2025).

The structures appear in SMILES notation. pIC50: −log10 of the molar value. Activity calls are given as the source filed them. The calls are words filed in the database; no cut-off is given here.

For orientation: AUC(0-t) means the area under the concentration-time curve up to a stated or last time point. Usually pIC50 stands for the negative decadic logarithm of the IC50, by convention in mol/L. In general, Tmax refers to the time from dosing to the highest level. Usually Cmax stands for the maximum level reached in the sampled fluid or tissue.

Consider `CC(C)(O)c1ccc2c(c1)[nH]c(=O)c1ccc(-c3cccc(-n4c(=O)[nH]c5c(F)cccc5c4=O)c3F)n12`, for which the Activity result in [1], in data set [3], in [4], in [5], in [6] and in data set [8] was “Non-toxic” in each case. Also, the Activity result in data set [9] was “Non-toxic”; in [14], “Non-toxic”; in data set [17], “Dose-dependent-effect”; in data set [19], “Dose-dependent-effect”. The inhibition entry in data set [2], in data set [13] and in [16] was “Dose-dependent-effect” each time. In addition, the inhibition result in [7] is “Active”. Further, the exposure AUC(0-t) at 24 h in data set [10] was found to be 161 ng·h/mL. Further, in [11], the negative logarithm of the IC50 (pIC50) was 5.10. Moreover, the inhibition in vivo at 100 mg/kg in data set [12] came to 74.9%. In data set [15], this molecule gave an area under the curve AUC(0-t) at 5 h of 116 ng·h/mL. Besides, the Tmax in [18] was 30 min. Moreover, the Cmax in data set [20] is 62.4 ng/mL.
